The values below come from article PMC6271825, “Synthesis and Cytotoxic Activity Evaluation of Novel Arylpiperazine Derivatives on Human Prostate Cancer Cell Lines” (Molecules, 2014).

What is called melting point is the temperature, or range, at which the solid turns liquid. Broadly, the IC50 is the concentration at which inhibition is half-maximal. A higher IC50 goes with weaker potency.

In one data set the test system is DU145 cells. Nature of the data set: CCK-8 in vitro cytotoxicity assay, DU145. The class given is cell-based. The note with it: DU-145; human prostate cancer cell line DU145, CCK-8, 24 h exposure, mean ± SD of three experiments. Here is the method: (§1) The synthesized target compounds 5 to 29 were evaluated for their in vitro cytotoxic activities against the three human prostate cancer cell lines (PC-3, LNCaP, and DU145), and compared with their effects on human prostate epithelial cell line RWPE-1 by CCK-8 assay.
(§2) PC-3 and RWPE-1 cells were cultured in Dulbecco’s modification Eagle’s medium (DMEM, Invitrogen, Carlsbad, CA, USA) supplemented with 10% fetal bovine serum (FBS, Hyclone, Logan, UT, USA), 100 U/mL penicillin and 0.1 mg/mL streptomycin (Invitrogen). DU145 cells were cultured in RPMI1640 media supplemented with 10% fetal bovine serum (FBS, Hyclone), 100 U/mL penicillin and 0.1 mg/mL streptomycin (Invitrogen). LNCaP cells were cultured in F12 media supplemented with 10% fetal bovine serum (FBS, Hyclone), 100 U/mL penicillin and 0.1 mg/mL streptomycin (Invitrogen). The cells were incubated at 37 °C in a humidified atmosphere with 5% CO2.
(§3) Cell proliferation was measured with the Cell Counting Kit-8 (CCK-8) assay kit (Dojindo Corp., Kumamoto, Japan). Cells were harvested during logarithmic growth phase and seeded in 96-well plates at a density of 1 × 10^5 cells/mL, and cultured at 37 °C in a humidified incubator (5% CO2) for 24 h, followed by exposure to various concentrations of compounds tested for 24 h. Subsequently 10 μL of CCK-8 (Dojindo) was added to each well, the cells were then incubated for an additional 1 h at 37 °C to convert WST-8 into formazan. Cell growth inhibition was determined by measuring the absorbance (Abs) at λ = 450 nm using amicroplate reader. Three independent experiments were performed. Cell growth inhibition was calculated according to the following equation: Growth inhibition = (1 − OD of treated cells/OD of control cells) × 100%
(§4) The half maximal inhibitory concentrations (IC50) were obtained from linear regression analysis of the concentration-response curves plotted for each tested compound.

Another data set has as its system PC-3 cells. Put plainly: CCK-8 in vitro cytotoxicity assay, PC-3. The class given is cell-based. Particulars: human prostate cancer cell line PC-3, CCK-8, 24 h exposure, mean ± SD of three experiments. Here is the method: as §1, §2, §3, §4
The test system of another data set is LNCaP cells. Put plainly: CCK-8 in vitro cytotoxicity assay, LNCaP. The data set is classed as cell-based. Particulars: Homo sapiens, LNCaP, 24 h, human prostate cancer cell line LNCaP, CCK-8, 24 h exposure, mean ± SD of three experiments. The method, then: as §1, §2, §3, §4
The next data set deals with RWPE-1 cells. Nature of the data set: CCK-8 in vitro cytotoxicity assay, RWPE-1 normal prostate epithelial cells. The data set is classed as cell-based. The note with it: human prostate epithelial cell line RWPE-1 (normal), CCK-8, 24 h exposure, mean ± SD of three experiments. The method, then: as §1, §2, §3, §4

Structures are written as SMILES. Structures can show the parent of a compound that is named as a salt.

As for `c1ccc(CN2CCN(CCc3ccc(COc4ccc5c(c4)OCO5)cc3)CC2)cc1` (as salt: HCl) [Compound 6, 1-(2-(4-((Benzo[d][1,3]dioxol-5-yloxy)methyl)phenyl)ethyl)-4-benzylpiperazine], the melting point fell in the range of 177 to 178 °C.
The compound `Fc1ccccc1N1CCN(CCc2ccc(COc3ccc4c(c3)OCO4)cc2)CC1` (as salt: HCl) [Compound 15, 1-(2-(4-((Benzo[d][1,3]dioxol-5-yloxy)methyl)phenyl)ethyl)-4-(2-fluorophenyl)piperazine] yielded a melting point of 187 to 188 °C.
For `Cc1cccc(N2CCN(CCc3ccc(COc4ccc5c(c4)OCO5)cc3)CC2)c1` (as salt: HCl) [Compound 11, 1-(2-(4-((Benzo[d][1,3]dioxol-5-yloxy)methyl)phenyl)ethyl)-4-m-tolylpiperazine], the melting point lay in the range of 171 to 172 °C.
As to `c1ccc(N2CCN(CCc3ccc(COc4ccc5c(c4)OCO5)cc3)CC2)cc1` (as salt: HCl) [Compound 5, 1-(2-(4-((Benzo[d][1,3]dioxol-5-yloxy)methyl)phenyl)ethyl)-4-phenylpiperazine], the melting point was in the range of 195 to 196 °C.
On the same count and under the same terms, as for `c1cnc(N2CCN(CCc3ccc(COc4ccc5c(c4)OCO5)cc3)CC2)nc1` (as salt: HCl) [Compound 8, 2-(4-(2-(4-((Benzo[d][1,3]dioxol-5-yloxy)methyl)phenyl)ethyl)piperazin-1-yl)pyrimidine], the figure is 181 to 182 °C.
In the case of `N#Cc1ccc(N2CCN(CCc3ccc(COc4ccc5c(c4)OCO5)cc3)CC2)c(F)c1` (as salt: HCl) [Compound 18, 4-(4-(2-(4-((Benzo[d][1,3]dioxol-5-yloxy)methyl)phenyl)ethyl)piperazin-1-yl)-3-fluorobenzonitrile], the melting point was 182 to 183 °C.
On the same count and under the same terms, as for `OC1(c2ccccc2)CCN(CCc2ccc(COc3ccc4c(c3)OCO4)cc2)CC1` (as salt: HCl) [Compound 29, 1-(2-(4-((Benzo[d][1,3]dioxol-5-yloxy)methyl)phenyl)ethyl)-4-phenylpiperidin-4-ol], the figure is 194 to 195 °C.
Compound `Cc1ccc(N2CCN(CCc3ccc(COc4ccc5c(c4)OCO5)cc3)CC2)cc1` (as salt: HCl) [Compound 10, 1-(2-(4-((Benzo[d][1,3]dioxol-5-yloxy)methyl)phenyl)ethyl)-4-p-tolylpiperazine] came in with a melting point of 184 to 185 °C.
The compound `CC(=O)c1ccc(N2CCN(CCc3ccc(COc4ccc5c(c4)OCO5)cc3)CC2)cc1` (as salt: HCl) [Compound 27, 1-(4-(4-(2-(4-((Benzo[d][1,3]dioxol-5-yloxy)methyl)phenyl)ethyl)piperazin-1-yl)phenyl)ethanone] displayed a melting point of 183 to 184 °C.
For `COc1ccc(N2CCN(CCc3ccc(COc4ccc5c(c4)OCO5)cc3)CC2)cc1` (as salt: HCl) [Compound 13, 1-(2-(4-((Benzo[d][1,3]dioxol-5-yloxy)methyl)phenyl)ethyl)-4-(4-methoxyphenyl)piperazine], the melting point was 174 to 175 °C.
For the compound `Brc1ccc(N2CCN(CCc3ccc(COc4ccc5c(c4)OCO5)cc3)CC2)cc1` (as salt: HCl) [Compound 24, 1-(2-(4-((Benzo[d][1,3]dioxol-5-yloxy)methyl)phenyl)ethyl)-4-(4-bromophenyl)piperazine], the melting point was 173 to 174 °C.
Compound `Clc1ccccc1N1CCN(CCc2ccc(COc3ccc4c(c3)OCO4)cc2)CC1` (as salt: HCl) [Compound 19, 1-(2-(4-((Benzo[d][1,3]dioxol-5-yloxy)methyl)phenyl)ethyl)-4-(2-chlorophenyl)piperazine] showed a melting point of 176 to 177 °C.
The same measure, in the same setting: as for `Clc1cccc(N2CCN(CCc3ccc(COc4ccc5c(c4)OCO5)cc3)CC2)c1Cl` (as salt: HCl) [Compound 22, 1-(2-(4-((Benzo[d][1,3]dioxol-5-yloxy)methyl)phenyl)ethyl)-4-(2,3-dichlorophenyl)piperazine], the figure is 177 to 178 °C; as for `COc1cccc(N2CCN(CCc3ccc(COc4ccc5c(c4)OCO5)cc3)CC2)c1` (as salt: HCl) [Compound 14, 1-(2-(4-((Benzo[d][1,3]dioxol-5-yloxy)methyl)phenyl)ethyl)-4-(3-methoxyphenyl)piperazine], 171 to 172 °C.
Take `Clc1ccccc1N1CCN(CCc2ccc(COc3ccc4c(c3)OCO4)cc2)CC1` [Compound 19, 1-(2-(4-((Benzo[d][1,3]dioxol-5-yloxy)methyl)phenyl)ethyl)-4-(2-chlorophenyl)piperazine]: the IC50 with DU145 cells was more than 50 µM; in the data set on PC-3 cells, more than 50 µM; in the data set with LNCaP cells, 26.6 ± 0.4 µM; in the data set with RWPE-1 cells, 29.9 ± 0.8 µM.
In turn, `COc1ccccc1N1CCN(CCc2ccc(COc3ccc4c(c3)OCO4)cc2)CC1` (as salt: HCl) [Compound 12, 1-(2-(4-((Benzo[d][1,3]dioxol-5-yloxy)methyl)phenyl)ethyl)-4-(2-methoxyphenyl)piperazine] showed a melting point of 173 to 174 °C.
The same measure, in the same setting: as for `FC(F)(F)c1ccccc1N1CCN(CCc2ccc(COc3ccc4c(c3)OCO4)cc2)CC1` (as salt: HCl) [Compound 25, 1-(2-(4-((Benzo[d][1,3]dioxol-5-yloxy)methyl)phenyl)ethyl)-4-(2-(trifluoromethyl)phenyl)piperazine], the figure is 171 to 172 °C; as for `COc1ccc(Cl)cc1N1CCN(CCc2ccc(COc3ccc4c(c3)OCO4)cc2)CC1` (as salt: HCl) [Compound 23, 1-(2-(4-((Benzo[d][1,3]dioxol-5-yloxy)methyl)phenyl)ethyl)-4-(5-chloro-2-methoxyphenyl)piperazine], 177 to 178 °C; as for `FC(F)(F)c1ccc(N2CCN(CCc3ccc(COc4ccc5c(c4)OCO5)cc3)CC2)cc1` (as salt: HCl) [Compound 26, 1-(2-(4-((Benzo[d][1,3]dioxol-5-yloxy)methyl)phenyl)ethyl)-4-(4-(trifluoromethyl)phenyl)piperazine], 176 to 177 °C.
With `Cc1cccc(N2CCN(CCc3ccc(COc4ccc5c(c4)OCO5)cc3)CC2)c1` [Compound 11, 1-(2-(4-((Benzo[d][1,3]dioxol-5-yloxy)methyl)phenyl)ethyl)-4-m-tolylpiperazine], the IC50 with DU145 cells, in the data set with PC-3 cells, with LNCaP cells and in the data set with RWPE-1 cells was more than 50 µM throughout.
`Clc1ccc(N2CCN(CCc3ccc(COc4ccc5c(c4)OCO5)cc3)CC2)cc1` (as salt: HCl) [Compound 20, 1-(2-(4-((Benzo[d][1,3]dioxol-5-yloxy)methyl)phenyl)ethyl)-4-(4-chlorophenyl)piperazine] showed a melting point of 164 to 165 °C.
Turning to `OC1(c2ccccc2)CCN(CCc2ccc(COc3ccc4c(c3)OCO4)cc2)CC1` [Compound 29, 1-(2-(4-((Benzo[d][1,3]dioxol-5-yloxy)methyl)phenyl)ethyl)-4-phenylpiperidin-4-ol], the IC50 with DU145 cells is 38.2 ± 2.45 µM; in the data set on PC-3 cells, more than 50 µM; in the data set with LNCaP cells, 43 ± 7.58 µM; in the data set on RWPE-1 cells it was 19.73 ± 0.01 µM.
For `c1cnc(N2CCN(CCc3ccc(COc4ccc5c(c4)OCO5)cc3)CC2)nc1` [Compound 8, 2-(4-(2-(4-((Benzo[d][1,3]dioxol-5-yloxy)methyl)phenyl)ethyl)piperazin-1-yl)pyrimidine] the same measures were 8.25 ± 0.16 µM, more than 50 µM, 26.6 ± 0.86 µM and 31.7 ± 3.14 µM.
